The values that follow come from ChEMBL document CHEMBL5236661, “A new selective inhibitor for IMP-1 metallo-β-lactamase, 3Z,5E-octa-3,5-diene-1,3,4-tricarboxylic acid-3,4-anhydride” (Bioorg Med Chem, 2023).

Assay [1] can be described thus: Inhibition of bacterial Metallo-beta-lactamase IMP-1 using nitrocefin as substrate pre-incubated for 15 mins followed by substrate addition by microplate reader. Details: species or system Bacteria.
Assay [2] deals with Escherichia coli. The assay can be described thus: Antibacterial activity against Escherichia coli KB366 expressing IMP-1 assessed as inhibition of bacterial growth at 100 ug in presence of meropenem incubated overnight by paper disk method. The format is functional. As to conditions: read-out: IZ.
In assay [3] the test system is Escherichia coli. The assay can be described thus: Antibacterial activity against Escherichia coli KB366 expressing IMP-1 assessed as inhibition of bacterial growth at 30 ug in presence of meropenem incubated overnight by paper disk method. As to conditions: read-out: IZ. The format is functional.
For assay [4], the system named is Escherichia coli. The assay can be described thus: Antibacterial activity against Escherichia coli KB366 expressing IMP-1 assessed as inhibition of bacterial growth at 10 ug in presence of meropenem incubated overnight by paper disk method. It is filed as functional. Conditions: read-out: IZ.
The test system of assay [5] is Escherichia coli. The assay can be described thus: Antibacterial activity against Escherichia coli KB366 expressing IMP-1 assessed as inhibition of bacterial growth at 3 ug in presence of meropenem incubated overnight by paper disk method. The format is functional. As to conditions: read-out: IZ.
Assay [6] relates to Escherichia coli. The assay can be described thus: Antibacterial activity against Escherichia coli KB366 expressing IMP-1 assessed as inhibition of bacterial growth at 1 ug in presence of meropenem incubated overnight by paper disk method. The format is functional. Conditions: read-out: IZ.
Assay [7] relates to Escherichia coli. The assay can be described thus: Antibacterial activity against Escherichia coli KB366 expressing IMP-1 assessed as inhibition of bacterial growth at 0.3 ug in presence of meropenem incubated overnight by paper disk method. The format is functional.
Assay [8] concerns Escherichia coli. The assay can be described thus: Antibacterial activity against Escherichia coli KB366 expressing IMP-1 assessed as inhibition of bacterial growth at 0.1 ug in presence of meropenem incubated overnight by paper disk method. It is filed as functional.
Assay [9] has as its system Escherichia coli. The assay can be described thus: Antibacterial activity against Escherichia coli KB366 expressing IMP-1 assessed as inhibition of bacterial growth at 100 ug in absence of meropenem incubated overnight by paper disk method. As to conditions: dose 100.0 µg. The format is functional, organism-based.
In assay [10] the test system is Escherichia coli. The assay can be described thus: Antibacterial activity against Escherichia coli KB366 expressing IMP-1 assessed as inhibition of bacterial growth at 30 ug in absence of meropenem incubated overnight by paper disk method. Conditions: dose 30.0 µg. The format is functional, organism-based.
Assay [11] relates to Escherichia coli. The assay can be described thus: Antibacterial activity against Escherichia coli KB366 expressing IMP-1 assessed as inhibition of bacterial growth at 10 ug in absence of meropenem incubated overnight by paper disk method. It is filed as functional, organism-based. Conditions: dose 10.0 µg.
For assay [12], the system named is Escherichia coli. The assay can be described thus: Antibacterial activity against Escherichia coli KB366 expressing IMP-1 assessed as inhibition of bacterial growth at 3 ug in absence of meropenem incubated overnight by paper disk method. As to conditions: dose 3.0 µg. It is filed as functional, organism-based.
Assay [13] concerns Escherichia coli. The assay can be described thus: Antibacterial activity against Escherichia coli KB366 expressing IMP-1 assessed as inhibition of bacterial growth at 1 ug in absence of meropenem incubated overnight by paper disk method. As to conditions: dose 1.0 µg. The format is functional, organism-based.
Assay [14] relates to Escherichia coli. The assay can be described thus: Antibacterial activity against Escherichia coli KB366 expressing IMP-1 assessed as inhibition of bacterial growth at 0.3 ug in absence of meropenem incubated overnight by paper disk method. The format is functional, organism-based. As to conditions: dose 0.3 µg.
Assay [15] deals with Escherichia coli. The assay can be described thus: Antibacterial activity against Escherichia coli KB366 expressing IMP-1 assessed as inhibition of bacterial growth at 0.1 ug in absence of meropenem incubated overnight by paper disk method. It is filed as functional, organism-based. Conditions: dose 0.1 µg.
In assay [16] the test system is Pseudomonas aeruginosa. The assay can be described thus: Antibacterial activity against Pseudomonas aeruginosa KB367 expressing IMP-1 assessed as inhibition of bacterial growth at 100 ug in presence of meropenem incubated overnight by paper disk method. It is filed as functional. As to conditions: read-out: IZ.
Assay [17] relates to Pseudomonas aeruginosa. The assay can be described thus: Antibacterial activity against Pseudomonas aeruginosa KB367 expressing IMP-1 assessed as inhibition of bacterial growth at 30 ug in presence of meropenem incubated overnight by paper disk method. It is filed as functional. As to conditions: read-out: IZ.
Assay [18] deals with Pseudomonas aeruginosa. The assay can be described thus: Antibacterial activity against Pseudomonas aeruginosa KB367 expressing IMP-1 assessed as inhibition of bacterial growth at 10 ug in presence of meropenem incubated overnight by paper disk method. The format is functional.
Assay [19] relates to Pseudomonas aeruginosa. The assay can be described thus: Antibacterial activity against Pseudomonas aeruginosa KB367 expressing IMP-1 assessed as inhibition of bacterial growth at 3 ug in presence of meropenem incubated overnight by paper disk method. It is filed as functional.
The subject of assay [20] is Pseudomonas aeruginosa. The assay can be described thus: Antibacterial activity against Pseudomonas aeruginosa KB367 expressing IMP-1 assessed as inhibition of bacterial growth at 1 ug in presence of meropenem incubated overnight by paper disk method. It is filed as functional. As to conditions: dose 1.0 µg.
Assay [21] concerns Pseudomonas aeruginosa. The assay can be described thus: Antibacterial activity against Pseudomonas aeruginosa KB367 expressing IMP-1 assessed as inhibition of bacterial growth at 0.3 ug in presence of meropenem incubated overnight by paper disk method. It is filed as functional, organism-based. As to conditions: dose 0.3 µg.
Assay [22] concerns Pseudomonas aeruginosa. The assay can be described thus: Antibacterial activity against Pseudomonas aeruginosa KB367 expressing IMP-1 assessed as inhibition of bacterial growth at 0.1 ug in presence of meropenem incubated overnight by paper disk method. The format is functional, organism-based. As to conditions: dose 0.1 µg.
In assay [23] the test system is Pseudomonas aeruginosa. The assay can be described thus: Antibacterial activity against Pseudomonas aeruginosa KB367 expressing IMP-1 assessed as inhibition of bacterial growth at 100 ug in absence of meropenem incubated overnight by paper disk method. The format is functional, organism-based. As to conditions: dose 100.0 µg.
For assay [24], the system named is Pseudomonas aeruginosa. The assay can be described thus: Antibacterial activity against Pseudomonas aeruginosa KB367 expressing IMP-1 assessed as inhibition of bacterial growth at 30 ug in absence of meropenem incubated overnight by paper disk method. The format is functional, organism-based. Conditions: dose 30.0 µg.
Assay [25] has as its system Pseudomonas aeruginosa. The assay can be described thus: Antibacterial activity against Pseudomonas aeruginosa KB367 expressing IMP-1 assessed as inhibition of bacterial growth at 10 ug in absence of meropenem incubated overnight by paper disk method. It is filed as functional, organism-based. Conditions: dose 10.0 µg.
The subject of assay [26] is Pseudomonas aeruginosa. The assay can be described thus: Antibacterial activity against Pseudomonas aeruginosa KB367 expressing IMP-1 assessed as inhibition of bacterial growth at 3 ug in absence of meropenem incubated overnight by paper disk method. It is filed as functional, organism-based. As to conditions: dose 3.0 µg.
The subject of assay [27] is Pseudomonas aeruginosa. The assay can be described thus: Antibacterial activity against Pseudomonas aeruginosa KB367 expressing IMP-1 assessed as inhibition of bacterial growth at 1 ug in absence of meropenem incubated overnight by paper disk method. The format is functional, organism-based. Conditions: dose 1.0 µg.
Assay [28] relates to Pseudomonas aeruginosa. The assay can be described thus: Antibacterial activity against Pseudomonas aeruginosa KB367 expressing IMP-1 assessed as inhibition of bacterial growth at 0.3 ug in absence of meropenem incubated overnight by paper disk method. The format is functional, organism-based. Conditions: dose 0.3 µg.
Assay [29] has as its system Pseudomonas aeruginosa. The assay can be described thus: Antibacterial activity against Pseudomonas aeruginosa KB367 expressing IMP-1 assessed as inhibition of bacterial growth at 0.1 ug in absence of meropenem incubated overnight by paper disk method. The format is functional, organism-based. As to conditions: dose 0.1 µg.
For assay [30], the system named is Escherichia coli. The assay can be described thus: Antibacterial activity against Escherichia coli KB366 expressing IMP-1 assessed as inhibition of bacterial growth at 0.03 ug in presence of meropenem incubated overnight by paper disk method. The format is functional. As to conditions: read-out: IZ.
Assay [31] concerns Escherichia coli. The assay can be described thus: Antibacterial activity against Escherichia coli KB366 expressing IMP-1 assessed as inhibition of bacterial growth at 0.01 ug in presence of meropenem incubated overnight by paper disk method. It is filed as functional. As to conditions: read-out: IZ.
Assay [32] concerns Escherichia coli. The assay can be described thus: Antibacterial activity against Escherichia coli KB366 expressing IMP-1 assessed as inhibition of bacterial growth at 0.03 ug in absence of meropenem incubated overnight by paper disk method. The format is functional, organism-based. Conditions: dose 0.03 µg.
For assay [33], the system named is Escherichia coli. The assay can be described thus: Antibacterial activity against Escherichia coli KB366 expressing IMP-1 assessed as inhibition of bacterial growth at 0.01 ug in absence of meropenem incubated overnight by paper disk method. It is filed as functional, organism-based. As to conditions: dose 0.01 µg.

Converted amounts (≈) assume the structure as drawn. The source made the active and inactive calls. The rule behind the calls is not given here.

With `CC/C=C/C1=C(CCCOCc2ccccc2)C(=O)OC1=O`, in [1], the IC50 is more than 10 µg/mL.

In assay [1], `CC/C=C/C1=C(CCCOC(C)=O)C(=O)OC1=O` returned an IC50 of 5.9 µg/mL (≈ 23.4 µM).

With `CC/C=C/C1=C(CCC(=O)OC)C(=O)OC1=O`, the IC50 in assay [1] stood at 4.3 µg/mL (≈ 18 µM). The values for the zone of inhibition at 100 µg/disc with Escherichia coli [2] and in the assay with Pseudomonas aeruginosa [16] were 33 mm and 20 mm, respectively. The zone of inhibition at 30 µg/disc with Escherichia coli [3] turned out to be 28 mm; with Pseudomonas aeruginosa [17], 16 mm. The zone of inhibition at 10 µg/disc came out at 26 mm in the assay on Escherichia coli [4] and 11 mm in the assay with Pseudomonas aeruginosa [18] (read-out: IZ). In addition, the zone of inhibition at 3 µg/disc in the assay with Escherichia coli [5] is 23 mm; in the assay on Pseudomonas aeruginosa [19] (read-out: IZ), 9 mm. In addition, the zone of inhibition at 1 µg/disc in the assay on Escherichia coli [6] turned out to be 19 mm. Also, the “inhibition zone (IZ)” value in the assay with Escherichia coli [7] (dose 0.3 µg), with Escherichia coli [8] (dose 0.1 µg), in the assay with Escherichia coli [9], in the assay on Escherichia coli [10], in the assay with Escherichia coli [11] and in the assay with Escherichia coli [12] was “inactive” throughout. Moreover, the “inhibition zone (IZ)” value with Escherichia coli [13], in the assay with Escherichia coli [14], in the assay on Escherichia coli [15], in the assay with Pseudomonas aeruginosa [20], with Pseudomonas aeruginosa [21] and in the assay on Pseudomonas aeruginosa [22] was “inactive” in each case. Moreover, the “inhibition zone (IZ)” value in the assay on Pseudomonas aeruginosa [23], in the assay with Pseudomonas aeruginosa [24], in the assay on Pseudomonas aeruginosa [25], with Pseudomonas aeruginosa [26], with Pseudomonas aeruginosa [27] and with Pseudomonas aeruginosa [28] was “inactive” each time. The “inhibition zone (IZ)” value with Pseudomonas aeruginosa [29] was “inactive”.

`CC/C=C/C1=C(CCC)C(=O)OC1=O` showed an IC50 in [1] of 3 µg/mL (≈ 15.4 µM). Further, the zone of inhibition at 10 µg/disc with Escherichia coli [4] is 24 mm. For the same compound, the zone of inhibition at 3 µg/disc with Escherichia coli [5] came to 18 mm. The zone of inhibition at 1 µg/disc in the assay with Escherichia coli [6] turned out to be 17 mm. In the assay with Escherichia coli [7] (read-out: IZ), the zone of inhibition at 0.3 µg/disc is 15 mm. Further, in the assay on Escherichia coli [8] (read-out: IZ), the zone of inhibition at 0.1 µg/disc was 13 mm. Moreover, in the assay on Escherichia coli [30], the zone of inhibition at 0.03 µg/disc amounted to 9 mm. For the same compound, the zone of inhibition at 0.01 µg/disc in the assay on Escherichia coli [31] came out at 9 mm. The “inhibition zone (IZ)” value with Escherichia coli [10], with Escherichia coli [11], in the assay on Escherichia coli [12], in the assay on Escherichia coli [13], in the assay on Escherichia coli [14] and in the assay with Escherichia coli [15] was “inactive” throughout. Moreover, the “inhibition zone (IZ)” value with Escherichia coli [32], in the assay with Escherichia coli [33], with Pseudomonas aeruginosa [18] (dose 10.0 µg), in the assay on Pseudomonas aeruginosa [19] (dose 3.0 µg), in the assay on Pseudomonas aeruginosa [20] and in the assay with Pseudomonas aeruginosa [21] was “inactive” each time. Also, the “inhibition zone (IZ)” value in the assay with Pseudomonas aeruginosa [22], in the assay with Pseudomonas aeruginosa [23], in the assay on Pseudomonas aeruginosa [24], in the assay on Pseudomonas aeruginosa [25], with Pseudomonas aeruginosa [26] and with Pseudomonas aeruginosa [27] was “inactive” in each case. Moreover, the “inhibition zone (IZ)” value in the assay on Pseudomonas aeruginosa [28] and with Pseudomonas aeruginosa [29] was “inactive” each time. Further, the zone of inhibition at 30 µg/disc in the assay on Pseudomonas aeruginosa [17] turned out to be 10 mm.
